Patent US12303497B2, “Anti-androgens for the treatment of metastatic castration-sensitive prostate cancer” (priority 2019, dated 2025)

System: patients with metastatic castration-sensitive prostate cancer (mCSPC)

## CNC(=O)c1ccc(N2C(=S)N(c3cnc(C#N)c(C(F)(F)F)c3)C(=O)C23CCC3)cc1F [Apalutamide, 4-[7-(6-cyano-5-trifluoromethylpyridin-3-yl)-8-oxo-6-thioxo-5,7-diazaspiro[3.4]oct-5-yl]-2-fluoro-N-methylbenzamide]
7 patients
  Grade ≥3 rash led to discontinuation: 1.3%
12 patients
  Skin rash led to treatment discontinuation: 2.3%
28 patients
  Skin rash led to dose reduction: 5.3%
42 patients
  Adverse events led to discontinuation: 8.0%
44 patients
  Skin rash led to dose interruption: 8.4%
All Grades
  AE leading to discontinuation: Alanine aminotransferase increased: 0 no. (%)
  AE leading to discontinuation: Anxiety: 1 (0.2) no. (%)
  AE leading to discontinuation: Atrial fibrillation: 1 (0.2) no. (%)
  AE leading to discontinuation: Cardiac failure: 0 no. (%)
  AE leading to discontinuation: Cardio-respiratory arrest: 1 (0.2) no. (%)
  AE leading to discontinuation: Cardiogenic shock: 1 (0.2) no. (%)
  AE leading to discontinuation: Cerebrovascular disorder: 1 (0.2) no. (%)
  AE leading to discontinuation: Cognitive disorder: 0 no. (%)
  AE leading to discontinuation: Dehydration: 1 (0.2) no. (%)
  AE leading to discontinuation: Dyspnea: 0 no. (%)
  AE leading to discontinuation: Euphoric mood: 1 (0.2) no. (%)
  AE leading to discontinuation: Fatigue: 4 (0.8) no. (%)
  AE leading to discontinuation: Hot flush: 1 (0.2) no. (%)
  AE leading to discontinuation: Hypothermia: 0 no. (%)
  AE leading to discontinuation: Infections: 1 (0.2) no. (%)
  AE leading to discontinuation: Intracranial hemorrhage: 0 no. (%)
  AE leading to discontinuation: Ischemic cardiac events: 2 (0.4) no. (%)
  AE leading to discontinuation: Large intestinal ulcer perforation: 1 (0.2) no. (%)
  AE leading to discontinuation: Lip swelling: 1 (0.2) no. (%)
  AE leading to discontinuation: Loss of consciousness: 0 no. (%)
  AE leading to discontinuation: New cancer neoplasm: 7 (1.3) no. (%)
  AE leading to discontinuation: Parkinson's disease: 1 (0.2) no. (%)
  AE leading to discontinuation: Pleural effusion: 0 no. (%)
  AE leading to discontinuation: Pulmonary edema: 0 no. (%)
  AE leading to discontinuation: Pulmonary embolism: 1 (0.2) no. (%)
  AE leading to discontinuation: Radiculopathy: 1 (0.2) no. (%)
  AE leading to discontinuation: Rash (grouped term): 12 (2.3) no. (%)
  AE leading to discontinuation: Respiratory failure: 0 no. (%)
  AE leading to discontinuation: Seizure: 2 (0.4) no. (%)
  AE leading to discontinuation: Subdural hemorrhage: 0 no. (%)
  AE leading to discontinuation: Sudden cardiac death: 1 (0.2) no. (%)
  AE leading to discontinuation: Sudden death: 0 no. (%)
  AE leading to discontinuation: Suicide: 0 no. (%)
  AE leading to dose interruption: Acute kidney injury: 1 (0.2) no. (%)
  AE leading to dose interruption: Acute respiratory failure: 1 (0.2) no. (%)
  AE leading to dose interruption: Allergy to chemicals: 1 (0.2) no. (%)
  AE leading to dose interruption: Anemia: 2 (0.4) no. (%)
  AE leading to dose interruption: Angina unstable: 0 no. (%)
  AE leading to dose interruption: Anxiety: 2 (0.4) no. (%)
  AE leading to dose interruption: Arthralgia: 2 (0.4) no. (%)
  AE leading to dose interruption: Aspartate aminotransferase or alanine aminotransferase increased: 7 (1.3) no. (%)
  AE leading to dose interruption: Asthenia: 3 (0.6) no. (%)
  AE leading to dose interruption: Atrial fibrillation: 1 (0.2) no. (%)
  AE leading to dose interruption: Bile duct obstruction: 0 no. (%)
  AE leading to dose interruption: Blood alkaline phosphatase increased: 1 (0.2) no. (%)
  AE leading to dose interruption: Cardiac amyloidosis: 0 no. (%)
  AE leading to dose interruption: Cardiac disorder: 0 no. (%)
  AE leading to dose interruption: Cardiac failure: 0 no. (%)
  AE leading to dose interruption: Cardiac failure congestive: 1 (0.2) no. (%)
  AE leading to dose interruption: Cerebrovascular accident: 1 (0.2) no. (%)
  AE leading to dose interruption: Cheilitis: 1 (0.2) no. (%)
  AE leading to dose interruption: Chronic hepatitis: 1 (0.2) no. (%)
  AE leading to dose interruption: Chronic obstructive pulmonary disease: 2 (0.4) no. (%)
  AE leading to dose interruption: Cognitive disorder: 1 (0.2) no. (%)
  AE leading to dose interruption: Confusional state: 1 (0.2) no. (%)
  AE leading to dose interruption: Constipation: 1 (0.2) no. (%)
  AE leading to dose interruption: Decreased appetite: 2 (0.4) no. (%)
  AE leading to dose interruption: Dehydration: 0 no. (%)
  AE leading to dose interruption: Depression: 1 (0.2) no. (%)
  AE leading to dose interruption: Diabetes mellitus: 1 (0.2) no. (%)
  AE leading to dose interruption: Diarrhea: 1 (0.2) no. (%)
  AE leading to dose interruption: Diplegia: 0 no. (%)
  AE leading to dose interruption: Dizziness: 1 (0.2) no. (%)
  AE leading to dose interruption: Dyspnea: 1 (0.2) no. (%)
  AE leading to dose interruption: Dysuria: 1 (0.2) no. (%)
  AE leading to dose interruption: Edema: 1 (0.2) no. (%)
  AE leading to dose interruption: Eyelid edema: 1 (0.2) no. (%)
  AE leading to dose interruption: Facial edema: 1 (0.2) no. (%)
  AE leading to dose interruption: Fall: 1 (0.2) no. (%)
  AE leading to dose interruption: Fatigue: 6 (1.1) no. (%)
  AE leading to dose interruption: Febrile neutropenia: 1 (0.2) no. (%)
  AE leading to dose interruption: Gamma-glutamyltransferase increased: 1 (0.2) no. (%)
  AE leading to dose interruption: Gastric ulcer perforation: 1 (0.2) no. (%)
  AE leading to dose interruption: Gastritis: 0 no. (%)
  AE leading to dose interruption: General physical health deterioration: 1 (0.2) no. (%)
  AE leading to dose interruption: Hallucination: 1 (0.2) no. (%)
  AE leading to dose interruption: Headache: 1 (0.2) no. (%)
  AE leading to dose interruption: Hematoma: 1 (0.2) no. (%)
  AE leading to dose interruption: Hematuria: 2 (0.4) no. (%)
  AE leading to dose interruption: Hemorrhage intracranial: 1 (0.2) no. (%)
  AE leading to dose interruption: Hemorrhagic erosive gastritis: 1 (0.2) no. (%)
  AE leading to dose interruption: Hepatic cirrhosis: 1 (0.2) no. (%)
  AE leading to dose interruption: Hepatic failure: 0 no. (%)
  AE leading to dose interruption: Hip fracture: 1 (0.2) no. (%)
  AE leading to dose interruption: Hot flush: 1 (0.2) no. (%)
  AE leading to dose interruption: Hydronephrosis: 0 no. (%)
  AE leading to dose interruption: Hyperbilirubinemia: 1 (0.2) no. (%)
  AE leading to dose interruption: Hypersensitivity: 1 (0.2) no. (%)
  AE leading to dose interruption: Hypertension: 6 (1.1) no. (%)
  AE leading to dose interruption: Hypertriglyceridemia: 2 (0.4) no. (%)
  AE leading to dose interruption: Hypokalemia: 1 (0.2) no. (%)
